The source of these data is US20100311782A1, “SUBSTITUTED PIPERIDINYLPROPANOIC ACID COMPOUNDS AND METHODS OF THEIR USE” (priority 2009, published 2010).

In data set [1] the target is T1, cloned human μ opioid receptor (Homo sapiens, UniProt P35372).
T1 construct: expressed in transfected cells
Kind of data set: Receptor binding, [3H]diprenorphine displacement, mu opioid receptor. The conditions noted are these: for Ki: [3H]diprenorphine, cloned human mu opioid receptor; for DOR/MOR Ratio: ratio of DOR Ki to MOR Ki.

Data set [2] addresses T2, cloned human δ opioid receptor (Homo sapiens, UniProt P41143).
T2 construct: expressed in transfected cells
Put plainly: Receptor binding, [3H]diprenorphine displacement, delta opioid receptor.

Data set [3] can be described thus: Primate PK. Format: in vivo, monkey. The conditions noted are these: for AUC0-t / Cmax: 1 mg/kg; for bioavailability: single PO dose of 1 mg/kg, read-out: oral bioavailability (F). Here is the method:
The dose formulations were prepared on the day of dosing by dissolving 33.16 mg of test material in 60 mL of sterile water to achieve a concentration of 0.5526 mg/mL total compound (0.5 mg/mL test compound). The dosing solution was vortexed to ensure homogeneity and dissolution.
The dose formulation was administered via oral gavage per facility SOPs. Each monkey received a single PO dose of 1 mg/kg as a 0.5% MC suspension.
(§1) All blood samples were collected from a peripheral vessel. Approximately 0.3 mL blood was collected at each time point. All blood samples were placed on wet ice until processed for plasma.
Blood samples were processed for plasma by centrifugation at approximately 5° C. Plasma samples were be stored in polypropylene tubes, quick frozen over dry ice and kept at −70±10° C. until LC/MSMS analysis.
(§2) Plasma concentrations were determined by high performance liquid chromatography with tandem mass spectrometric detection (LC/MS/MS) after protein precipitation.
(§3) Plasma concentration versus time data was analyzed by non-compartmental approaches using the WinNonlin software program (version 5.0.1, Pharsight, Mountain View, Calif.).

Data set [4] has as its system morphine-slowed gastrointestinal transit (GIT). Put plainly: Mouse Gastrointestinal Transit (GIT) Assay, antagonism of the anti-transit effect of morphine. It counts as in vivo, mice. The conditions noted are these: for recovery of the pre-opioid treatment efficacy of GIT: one hour after a 3 mg/kg dose, morphine 3 mg/kg s.c. Here is the method:
Male Swiss-Webster mice (25-30 g) obtained from Ace Animals (Boyertown, Pa.) were used for all experiments. Mice were housed 4/cage in polycarbonate cages with food and water available ad libitum. Mice were on a 12 hours light:dark schedule with lights on at 6:30 a.m. All experiments were performed during the light cycle. Mice were fasted the night before the experiment, with water available ad libitum.
Compounds were administered in a volume of 0.1 ml/10 g of body weight. Morphine (3 mg/kg) or vehicle (0.9% saline) was administered s.c. 35 min to induce slowed GIT, prior to determination of GIT. Ten minutes after the morphine treatment, mice were administered 0.2 ml of a charcoal meal orally. The charcoal meal consisted of a slurry of charcoal, flour, and water in the following ratio (1:2:8, w:w:v). Twenty-five minutes after receiving the charcoal meal, the mice were euthanized with CO2 and GIT was determined.
GIT is expressed as % GIT by the following formula: […]
For each test agent, a value for % Antagonism (% A) was determined for the 2 and 6 hr antagonist pretreatment. Using the mean % GIT for each treatment group, % A was calculated using the following formula: […]

Data set [5] is described as follows: Dog PK. It counts as in vivo. The conditions noted are these: for AUC0-t: 6 mg/kg, individual dogs; for bioavailability: single PO dose of 6 mg/kg, read-out: oral bioavailability (F); for AUC: mean of three dogs. Here is the method:
The PO dose formulations were prepared on the day of dosing by dissolving 33.16 mg of test material in 60 mL of sterile water to achieve a concentration of 0.5526 mg/mL total compound (0.5 mg/mL test compound). The dosing solution was vortexed to ensure homogeneity and dissolution.
The dose formulation was administered via oral gavage per facility SOPs. Each dog received a single PO dose of 6 mg/kg.
as §1
Blood samples were processed for plasma by centrifugation at approximately 5° C. Plasma samples were stored in polypropylene tubes, quick frozen over dry ice and kept at −70±10° C. until LC/MSMS analysis.
as §2, §3

Data set [6] in a line: Rat PK. The conditions noted are these: rats; for bioavailability: male, Sprague-Dawley, rat, plasma, read-out: oral bioavailability (F). It counts as in vivo. Here is the method: Jugular vein cannulated (JVC) male Sprague-Dawley (SD) rats (Charles River, Raleigh, N.C.) were housed individually in polycarbonate cages on alpha-dri bedding in an environmentally controlled room with a 12 hour light-dark cycle. Rats were allowed to acclimate for 3-5 days prior to the study. Animals were fasted overnight prior to drug administration and were fed after the 4 h blood collection.
The suspension used for PO administration was prepared at a nominal concentration of 2 mg/mL of test agent in 0.5% methylcellulose with 0.1% Tween®80.
Two groups of three JVC rats each received a single PO dose of 10 mg/kg. The PO dose was administered by oral gavage in a dosing volume of 5 mL/kg. Blood samples (0.6 mL) were collected via jugular vein cannula at predose, 15 and 30 minutes and 1, 2, 4, 6, 8 and 24 h postdose in EDTA-containing tubes. Plasma was obtained by centrifugation at 3000 rpm for 15 minutes. The samples were stored at −20° C. until analysis.
Plasma aliquots were deproteinized with internal standard solution in acetonitrile. The samples were vortexed, centrifuged and an aliquot of the supernatant was mixed with water. The diluted aliquot was then analyzed.
as §2
Model-independent analyses were performed to evaluate the pharmacokinetics. The area under the concentration-time curve (AUC) and the area under the first moment curve (AUMC) were calculated from zero to 6 or 8 hours post-dose using the linear trapezoidal method with extrapolation to infinity. The terminal elimination rate constant (kel) and half-life (t1/2) were calculated by linear least-squares regression of log-transformed concentration-time data. Systemic plasma clearance (CLs) was computed from Dose/AUC. Volume of distribution at steady state (Vdss) was calculated from Dose·AUMC/AUC^2. WinNonlin® Professional software (Pharsight Corporation) was used to generate all pharmacokinetic data.

Data set [7] deals with T3, cloned human κ opioid receptor (Homo sapiens, UniProt P41145).
T3 construct: expressed in transfected cells
T3 sequence (P41145 whole entry): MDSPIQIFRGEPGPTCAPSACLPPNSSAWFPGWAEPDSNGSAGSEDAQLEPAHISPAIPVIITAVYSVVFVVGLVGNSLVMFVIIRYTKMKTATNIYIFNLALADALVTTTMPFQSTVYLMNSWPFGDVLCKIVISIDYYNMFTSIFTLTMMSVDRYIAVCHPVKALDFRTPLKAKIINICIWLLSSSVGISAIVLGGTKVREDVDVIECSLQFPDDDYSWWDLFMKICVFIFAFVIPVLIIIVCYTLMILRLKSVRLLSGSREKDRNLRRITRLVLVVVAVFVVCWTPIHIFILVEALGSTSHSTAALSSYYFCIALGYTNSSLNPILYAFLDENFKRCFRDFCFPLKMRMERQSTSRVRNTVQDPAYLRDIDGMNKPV
Kind of data set: Receptor binding, [3H]diprenorphine displacement, kappa opioid receptor.

[8] abbreviates: individual monkeys, PO 1 mg/kg, lithium salt.
[9] abbreviates: [3H]diprenorphine, cloned human kappa opioid receptor, read-out: KOR Ki.

Where “and” joins values, the source holds several entries; their conditions need not be identical. Identical values can stand only once. Counter-ions that a name gives are not always drawn. Like-named read-outs stand apart in the source and are kept apart here.

T1 sequence (P35372 whole entry): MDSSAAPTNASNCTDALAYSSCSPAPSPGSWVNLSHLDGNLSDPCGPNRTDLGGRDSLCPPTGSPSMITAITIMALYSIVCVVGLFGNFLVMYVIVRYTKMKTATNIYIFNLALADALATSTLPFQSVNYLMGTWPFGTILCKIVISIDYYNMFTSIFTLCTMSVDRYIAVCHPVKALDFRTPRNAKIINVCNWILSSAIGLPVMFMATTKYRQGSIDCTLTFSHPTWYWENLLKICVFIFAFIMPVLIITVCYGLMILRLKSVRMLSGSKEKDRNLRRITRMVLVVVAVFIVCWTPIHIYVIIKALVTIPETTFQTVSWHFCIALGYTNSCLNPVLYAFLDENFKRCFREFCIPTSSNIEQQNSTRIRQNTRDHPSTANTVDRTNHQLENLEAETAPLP
T2 sequence (P41143 whole entry): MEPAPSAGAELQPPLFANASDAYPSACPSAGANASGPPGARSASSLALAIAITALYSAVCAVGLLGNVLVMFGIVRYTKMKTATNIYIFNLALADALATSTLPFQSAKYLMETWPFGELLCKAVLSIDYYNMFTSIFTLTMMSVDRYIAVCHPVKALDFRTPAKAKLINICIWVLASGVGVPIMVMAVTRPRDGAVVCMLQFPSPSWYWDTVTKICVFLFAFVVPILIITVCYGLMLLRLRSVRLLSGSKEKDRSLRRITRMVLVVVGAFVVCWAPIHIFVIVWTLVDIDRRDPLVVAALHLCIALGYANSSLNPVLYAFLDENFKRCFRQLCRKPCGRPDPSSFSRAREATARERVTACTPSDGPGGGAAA

In general, Ki refers to the equilibrium dissociation constant of an inhibitor or competing ligand from its target. The Cmax is the highest concentration seen after dosing. Broadly, the bioavailability is the share of a dose that reaches the circulation, judged against a reference dose that is usually intravenous. For orientation: AUC means the area under the concentration-time curve, a measure of exposure. Consider `C[C@H]1CN(C[C@H](Cc2ccccc2)C(=O)[O-])CC[C@@]1(C)c1cccc(C(N)=O)c1.[Li+]` [Example 1, (S)-2-benzyl-3-((3R,4R)-4-(3-carbamoylphenyl)-3,4-dimethylpiperidin-1-yl)propanoic acid, lithium salt], for which the results for the Ki in data set [1] (MOR Ki) and in data set [2] (DOR Ki) were 11.2 nM and 340 nM, respectively. For the same compound, in data set [1], the “DOR/MOR Ratio” value turned out to be 30. The AUC0-t was 87 ng·h/mL and 132 ng·h/mL in data set [3] (setting [8]); 103 ng·h/mL in data set [3] (monkey, in vivo, po, individual monkeys, PO 1 mg/kg, read-out: AUC0-t); 183 ng·h/mL in data set [5] (dog, in vivo, po, PO 6 mg/kg, read-out: AUC0-t); 250 ng·h/mL and 344 ng·h/mL in data set [5] (PO 6 mg/kg, lithium salt). In addition, the maximum concentration (Cmax) was 29.5 ng/mL and 20.8 ng/mL and 44.6 ng/mL in data set [3] (setting [8]); 32 ± 12 ng/mL in data set [3] (monkey, in vivo, po, mean of three monkeys, PO 1 mg/kg, read-out: Mean Cmax ± SD); 32 ± 12 ng/mL in data set [3] (monkey, in vivo, po, monkeys, PO 1 mg/kg, mean ± SD, text of b284, read-out: Cmax). For the same compound, the bioavailability came to 10% in data set [3] (monkey, in vivo, monkeys) and 30% in data set [5] (dog, in vivo, dogs). Further, the “fold higher maximum plasma concentration (Cmax) as compared to Example C-3” value in data set [3] (monkeys, PO 1 mg/kg) turned out to be 18.3 fold. In data set [4] (mice, 3 mg/kg orally, 0-6 h), the “AUC values (h * percent antagonism (0-6 h))” value is recorded as 408.8 h * percent antagonism. Moreover, the “recovery of the pre-opioid treatment efficacy of GIT” value in data set [4] (mice) was around 90%. The “AUC value (GIT antagonism) times greater than that of Example C-2” value in data set [4] (mouse, in vivo) came to 2.1 times. In data set [5] (dog, in vivo, PO 6 mg/kg), this compound registered an AUC of 259 ± 81 ng·h/mL. Also, the “improvement in the mean AUC value as compared to Example C-3” value in data set [5] (dogs, PO 6 mg/kg) is “approximately 4 fold”. In addition, the “increase in mean concentration in plasma as compared to C-3” value in data set [5] (dogs, PO 6 mg/kg) is recorded as “approximately 3 fold”.
As to `C[C@H]1CN(C[C@H](Cc2ccccc2)C(=O)[O-])CC[C@@]1(C)c1cccc(C(N)=O)c1.[Na+]` [Example 2, (S)-2-benzyl-3-((3R,4R)-4-(3-carbamoylphenyl)-3,4-dimethylpiperidin-1-yl)propanoic acid, sodium salt], the bioavailability in data set [6] (single PO dose of 10 mg/kg) amounted to 11%. For the same compound, the values for the Ki in data set [1] (MOR Ki) and in data set [2] (DOR Ki) were 17.3 nM and 308 nM, respectively. In data set [1], the “DOR/MOR Ratio” value is 18.
`C[C@H]1CN(C[C@H](Cc2ccccc2)C(=O)O)CC[C@@]1(C)c1cccc(C(N)=O)c1.O=C(O)C(F)(F)F` [Example 3, (S)-2-benzyl-3-((3R,4R)-4-(3-carbamoylphenyl)-3,4-dimethylpiperidin-1-yl)propanoic acid, trifluoroacetate salt]: the bioavailability in data set [6] (single PO dose of 10 mg/kg) amounted to 8%. The “improvement in oral bioavailability as compared to Example C-2” value in data set [6] (PO 10 mg/kg) is listed as “approximately 8 fold”. Further, the Ki in data set [1] (MOR Ki) turned out to be 12.4 nM; in data set [2] (DOR Ki), 397 nM. The “DOR/MOR Ratio” value in data set [1] was found to be 32.
On to `C[C@H]1CN(C[C@H](Cc2ccccc2)C(=O)O)CC[C@@]1(C)c1cccc(C(N)=O)c1` [Example 4, (S)-2-Benzyl-3-((3R,4R)-4-(3-carbamoylphenyl)-3,4-dimethylpiperidin-1-yl)propanoic acid], for which the results for the Ki in data set [1] (MOR Ki) and in data set [2] (DOR Ki) were 14 nM and 460 nM, respectively. In addition, in data set [1], the “DOR/MOR Ratio” value is reported as 33.
For the compound `C[C@H]1CN(C[C@H](Cc2ccccc2)C(=O)O)CC[C@@]1(C)c1cccc(C(N)=O)c1` [Example 5, (S)-2-benzyl-3-((3R,4R)-4-(3-carbamoylphenyl)-3,4-dimethylpiperidin-1-yl)propanoic acid, oxalic acid salt], the Ki in data set [1] (MOR Ki) is 16.9 nM; in data set [7] it was above 10000 nM; in data set [2] (DOR Ki), 310 nM.
For the compound `C[C@H]1CN(C[C@H](Cc2ccccc2)C(=O)O)CC[C@@]1(C)c1cccc(C(N)=O)c1` [Example 6, (S)-2-benzyl-3-((3R,4R)-4-(3-carbamoylphenyl)-3,4-dimethylpiperidin-1-yl)propanoic acid, succinic acid salt], the Ki came to 18.1 nM in data set [1] (MOR Ki) and 527 nM in data set [2] (DOR Ki).
With `C[C@H]1CN(C[C@@H](Cc2ccccc2)C(=O)NCC(=O)O)CC[C@@]1(C)c1cccc(C(N)=O)c1.O=C(O)C(F)(F)F` [Example C-2, [[2(R)-[[4(R)-(3-Amidophenyl)-3(R),4-dimethyl-1-piperidinyl]methyl]-1-oxo-3-phenylpropyl]amino]acetic acid, trifluoromethylacetate salt, reference compound], the “oral bioavailability (F)” value in data set [6] (single PO dose of 10 mg/kg) is on record as around 1%. The “times more potent than Example 1 as an MOR antagonist in the opioid receptor binding assay” value in data set [1] (C-2 versus Example 1, Table I) is listed as 4.3 times. The Ki in data set [1] (read-out: MOR Ki) worked out at 2.6 nM; in data set [7] (setting [9]) it was 660 nM; in data set [2] (read-out: DOR Ki), 85 nM. In addition, the “DOR/MOR Ratio” value in data set [1] was determined as 33. The “recovery of the pre-opioid treatment efficacy of GIT” value in data set [4] (mice) was 50%. The “AUC values (h * percent antagonism (0-6 h))” value in data set [4] (mouse, in vivo, po, 3 mg/kg) stood at 191.5 h * percent antagonism.
For `CC1CN(CC(Cc2ccccc2)C(=O)NCC(=O)O)CCC1(C)c1cccc(C(N)=O)c1` [Example C-3, [[2(R)-[[4(R)-(3-Amidophenyl)-3(R),4-dimethyl-1-piperidinyl]methyl]-1-oxo-3-phenylpropyl]amino]acetic acid, sodium salt, reference compound], the Ki in data set [1] (MOR Ki) amounted to 2.9 nM; in data set [7] (setting [9]), 930 nM; in data set [2] (DOR Ki), 98 nM. Moreover, in data set [1], the “DOR/MOR Ratio” value was found to be 34. Further, the Cmax in data set [3] (individual monkeys, PO 1 mg/kg, sodium salt) was 1.81 ng/mL and 1.74 ng/mL; in data set [3] (monkey, plasma, po, individual monkeys, PO 1 mg/kg, read-out: Cmax), 1.7 ng/mL; in data set [3] (monkey, plasma, po, mean of three monkeys, PO 1 mg/kg, read-out: Mean Cmax ± SD) it was 1.75 ± 0.06 ng/mL. Further, the bioavailability is below 2% in data set [3] (monkey, plasma, monkeys) and 11% in data set [5] (dog, plasma, dogs). The AUC0-t was 81 ng·h/mL in data set [5] (dog, plasma, po, PO 6 mg/kg, read-out: AUC0-t); 54 ng·h/mL and 53 ng·h/mL in data set [5] (PO 6 mg/kg, sodium salt). Further, in data set [5] (dog, plasma, PO 6 mg/kg), the AUC turned out to be 63 ± 16 ng·h/mL.
